Assay results reported in PubChem BioAssay (NCI).
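Test compounds were applied to cells in 96-well plates for 48 hours at 5 doses. TGI denotes the concentration required for complete inhibition of growth.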

Legend:
Test in all cases: inhibition of tumour cell growth, NCI panel, 48 h
COLO 205 colon = system: COLO 205 colon
SK-OV-3 ovarian = system: SK-OV-3 ovarian
HOP-62 NSCLC = system: HOP-62 NSCLC
NCI-H460 lung = system: NCI-H460 lung
HCT-15 colon = system: HCT-15 colon
SF-268 CNS = system: SF-268 CNS
PC-3 prostate = system: PC-3 prostate
EKVX NSCLC = system: EKVX NSCLC
SNB-19 CNS = system: SNB-19 CNS
CAKI-1 renal = system: CAKI-1 renal
SR leukemia = system: SR leukemia
LOX IMVI melanoma = system: LOX IMVI melanoma
DU-145 prostate = system: DU-145 prostate
SF-295 CNS = system: SF-295 CNS
U251 CNS = system: U251 CNS
IGROV1 ovarian = system: IGROV1 ovarian
MDA-MB-435 = system: MDA-MB-435
RXF 393 renal = system: RXF 393 renal
NCI-H226 lung = system: NCI-H226 lung
NCI-H522 lung = system: NCI-H522 lung
ACHN renal = system: ACHN renal
SN12C renal = system: SN12C renal
A498 renal = system: A498 renal
SK-MEL-5 melanoma = system: SK-MEL-5 melanoma
K-562 leukemia = system: K-562 leukemia
TK-10 renal = system: TK-10 renal
OVCAR-5 ovarian = system: OVCAR-5 ovarian
HCC-2998 colon = system: HCC-2998 colon
KM12 colon = system: KM12 colon
SW-620 colon = system: SW-620 colon
HOP-92 NSCLC = system: HOP-92 NSCLC
MCF7 breast = system: MCF7 breast
HL-60(TB) leukemia = system: HL-60(TB) leukemia
UACC-257 melanoma = system: UACC-257 melanoma
MDA-N = system: MDA-N
UO-31 renal = system: UO-31 renal
CCRF-CEM leukemia = system: CCRF-CEM leukemia
UACC-62 melanoma = system: UACC-62 melanoma
RPMI-8226 leukemia = system: RPMI-8226 leukemia
HT29 colon = system: HT29 colon
HCT-116 colon = system: HCT-116 colon
OVCAR-4 ovarian = system: OVCAR-4 ovarian
SK-MEL-2 melanoma = system: SK-MEL-2 melanoma
MDA-MB-231 breast = system: MDA-MB-231 breast
786-0 renal = system: 786-0 renal
BT-549 breast = system: BT-549 breast
MALME-3M melanoma = system: MALME-3M melanoma
OVCAR-3 ovarian = system: OVCAR-3 ovarian
SK-MEL-28 melanoma = system: SK-MEL-28 melanoma
NCI-H23 lung = system: NCI-H23 lung
SNB-75 CNS = system: SNB-75 CNS
A549 NSCLC = system: A549 NSCLC
M14 melanoma = system: M14 melanoma
OVCAR-8 ovarian = system: OVCAR-8 ovarian
MOLT-4 leukemia = system: MOLT-4 leukemia
T-47D breast = system: T-47D breast

Measured: TGI

CC1(C)OC2OC(COC(=O)C=[N+]=[N-])C3OC(C)(C)OC3C2O1 (stereo not drawn)
> 100 µM: COLO 205 colon | SK-OV-3 ovarian | HOP-62 NSCLC | NCI-H460 lung | HCT-15 colon | SF-268 CNS | PC-3 prostate | EKVX NSCLC | SNB-19 CNS | CAKI-1 renal | SR leukemia | LOX IMVI melanoma | DU-145 prostate | SF-295 CNS | U251 CNS | IGROV1 ovarian | MDA-MB-435 | RXF 393 renal | NCI-H226 lung | NCI-H522 lung | ACHN renal | SN12C renal | A498 renal | SK-MEL-5 melanoma | K-562 leukemia | TK-10 renal | OVCAR-5 ovarian | HCC-2998 colon | KM12 colon | SW-620 colon | HOP-92 NSCLC | MCF7 breast | HL-60(TB) leukemia | UACC-257 melanoma | MDA-N | UO-31 renal | CCRF-CEM leukemia | UACC-62 melanoma | RPMI-8226 leukemia | HT29 colon | HCT-116 colon | OVCAR-4 ovarian | SK-MEL-2 melanoma | MDA-MB-231 breast | 786-0 renal | BT-549 breast | MALME-3M melanoma | OVCAR-3 ovarian | SK-MEL-28 melanoma | NCI-H23 lung

COc1ccc(C2=C(OC(=O)N(C)C)c3cccn3-c3cc(C(F)(F)F)ccc3S2)cc1
> 10 µM: COLO 205 colon | SK-OV-3 ovarian | HOP-62 NSCLC | HCT-15 colon | SF-268 CNS | PC-3 prostate | SNB-75 CNS | EKVX NSCLC | CAKI-1 renal | A549 NSCLC | SR leukemia | LOX IMVI melanoma | DU-145 prostate | SF-295 CNS | IGROV1 ovarian | SN12C renal | SK-MEL-5 melanoma | K-562 leukemia | TK-10 renal | HCC-2998 colon | KM12 colon | SW-620 colon | MCF7 breast | HL-60(TB) leukemia | UACC-257 melanoma | M14 melanoma | MDA-N | OVCAR-8 ovarian | CCRF-CEM leukemia | UACC-62 melanoma | RPMI-8226 leukemia | HT29 colon | 786-0 renal | MALME-3M melanoma | MOLT-4 leukemia | T-47D breast | SK-MEL-28 melanoma | NCI-H23 lung
